{
  "source": "patent US20120258938A1",
  "about": "“Enzymatic Production or Chemical Synthesis and Uses for 5,7-Dienes and UVB Conversion Products Thereof” (priority 2008, published 2012)",
  "key": {"[1]": {"system": "HaCaT keratinocytes", "test": "Colony forming (clonogenicity) assay in HaCaT keratinocytes", "assay_type": "cell-based, human", "conditions": "10 days", "experimental": "HaCaT and human adult epidermal keratinocytes were cultured and DNA synthesis experiments were performed as described previously (26). Cells were plated in 6-well plates at a density of 20 cells/cm^2 in DMEM (Cellgro, Herndon Va.) containing 5% charcoal-treated fetal bovine serum (Hyclone, Logan, Utah), 1% antibiotic solution (PSA, Sigma, St. Louis, […].) and vehicle or secosteroids. Cells were incubated in 37° C. for 10 days with media being changed every 72 hr. Cells were fixed with 4% paraformaldehyde in PBS overnight, stained with 0.5% crystal violet in PBS for 15 min, rinsed and air-dried. The number and size of the colonies were measured using an ARTEK counter 880 (Dynex Technologies Inc., Chantilly, Va.). Colony forming units were calculated as follows: number of colonies (size>0.5 mm) was divided by the number of cells plated and multiplied by 100."}, "[2]": {"system": "VDRE", "test": "VDRE-Luc reporter (with siRNA) in HaCaT keratinocytes", "assay_type": "cell-based, human", "conditions": "24 h", "experimental": "HaCaT keratinocytes were transfected with VDRE-Luc (gift from Dr. That Chen (27) and with scrambled or VDR siRNA (Dharmacon, Inc., Lafayette, Mo., on-Target plus smart pool human VDR L-003448-00, on-Target plus siControl non-targeting pool D-001810-10-05) using Lipofectamine Plus (Invitrogen, Carlsbad, Calif.) in DMEM medium. PhRL-TK (expresses Renilla luciferase) served as a normalization control; Promega, Madison, Wis.). After transfection, cells were incubated for 24 hours in DMEM with 5% FBS. Cells were then transferred to fresh media containing the compounds to be tested or vehicle (ethanol) and incubated for 24 hours. Levels of VDR and beta-actin 24 h after transfection were assessed with Western blot (VDR(D-6) antibody, sc-13133, 1:400, Santa Cruz, Inc., Santa Cruz, Calif.) performed as described previously (30.).\nConstruct CYP24-Luc and VDRE-Luc constructs were a generous gift from Dr. Tai Cheng, Ph.D. (Boston University Medical Campus, Core Lab Director). It was originally developed by Vaisanen et al. (27). PLuc and NFκB-Luc construct was described previously (28-29). huVDR construct was a generous gift from Dr. D. Bikle. HaCaT keratinocytes were transfected with NFκB-Luc, CYP-24-Luc, VDRE-Luc and hVDR constructs using Lipofectamine Plus (Invitrogen, Carlsbad, Calif.) in DMEM medium with firefly luciferase reporter gene plasmid and with phRL-TK."}, "[3]": {"system": "cytokeratin 14", "test": "Real-time RT PCR cytokeratin 14 mRNA, normal epidermal keratinocytes", "assay_type": "cell-based, human", "conditions": "10^−10 M", "experimental": "RNA was extracted using an Absolutely RNA RT-PCR Miniprep Kit (Stratagene, La Jolla, Calif.). Real time PCR and reverse transcription products were purchased from Applied Biosystems, Foster City, Calif. Reverse transcription was performed using Taqman® Reverse Transcription Reagents. The following PCR products were used: cytokeratin 14: Hs00265033_m1, involucrin: Hs00846307_s1, CYP27A1: Hs00168003_ml, CYP27B1: Hs00168017_ml, 18SrRNA: Hs99999901_s1. The reaction was performed with Taqman® Universal PCR Master Mix; data were collected on an ABI Prism 7700 and analyzed on Sequence Detector 1.9.1. Specific gene amounts were related to 18SrRNA by comparative CT method."}, "[4]": {"system": "MD-MBA-231", "test": "Flow cytometry cell cycle and subG1, MD-MBA-231", "assay_type": "cell-based, human", "conditions": "MD-MBA-231, 24 h", "experimental": "MD-MBA-231, MG-63, PC-3, and WM164 cells were seeded into Petri dishes and then incubated for 24 h with 20-hydroxycholecalciferol in DMEM medium containing 5% FBS. Then cells were fixed, DNA stained and samples read with flow cytometer as described (7). Data was analyzed with Cell Quest (BD Biosciences). Cell cycle phases were assessed in viable cell populations and subG1 contents were calculated within whole cell population."}, "[5]": {"system": "HL-60 human promyelocytic leukemia cells", "test": "Monocytic differentiation (NBT), HL-60", "assay_type": "cell-based", "conditions": "HL-60, 0.1 μM", "experimental": "HL-60 human promyelocytic and U937 promonocytic leukemia cells were treated with the drugs at 0.1 μM or vehicle (negative control or 12-O-tetradecanoylphorbol-13-acetate (TPA) (positive control). Media were changed every 72 h and test substances added fresh every day. Differentiation toward monocytes-like morphology and NBT-reduction has been assessed after 5 and 7 days. Cells (2×106) were washed with PBS four times and resuspended in 200 μL of NBT solution (4 mg/mL) in water. After the addition of 200 ul of TPA solution (2 ug/ml) in PBS cells were incubated at 37° C. for 60 min in 24-well plates. Cell differentiation was assessed by intracellular blue formazan deposits. The NBT positive and negative cells were scored under light microscopy examination (40×) with a minimum of 200 cells scored.\nFor spectrophotometric analysis the cells were washed twice with buffer containing cold bovine serum albumin solution (17 mg/mL BSA, 137 mmol/L, NaCl, 5 mmol/L, KCl, 0.8 mmol/L, MgSO4, […], HEPES, pH7.4) to remove unreacted NBT, and the insoluble formazan deposits in the resulting pellet were solubilized in 1 mL of a mixture containing 90% DMSO, 0.1% SDS and 0.01 mmol/L NaOH by vigorous vortexing. The samples were centrifuged 5 min at 1500 g to remove the cellular debris, and then the absorbance of supernatants was measured at 715 nm. Data are expressed as change in A715/106 cells."}, "[6]": {"system": "PC3 human prostate cancer cells", "test": "Soft agar colony formation, PC3 prostate cancer", "assay_type": "cell-based", "conditions": "PC3, dose dependent", "experimental": "Growth and survival of prostate cancer cells (PC3) and melanoma cells SKMEL 188 and AbC1 was determined by following their ability to form colonies in soft agar. Cells growing in monolayer culture were trypsinized and resuspended (1,000 cells/well) in 0.25 ml medium containing 0.4% agarose and 5% charcoal stripped serum (HyClone).\nCell suspensions were added to 0.8% agar layer in 24 well plates. Compounds were added from ethanol stocks (100 μM) to final concentrations of 0.1 nM or 10 nM, in 100 μL media. Each condition was tested in quadruplicate. An ethanol solvent control (amount of ethanol equivalent to test) as well as a media-only control was included in the assay. Cells were allowed to grow at 37° with 5% CO2 over two weeks with secosteroids in fresh media (100 μL) being added after every 72 h. Soft agar colonies were scored and stained with 0.5 mg/ml MTT reagent (Promega), 500 μL/well after two weeks. Colonies were then counted under the microscope and number of units was calculated as number of colonies formed divided by the number of cells seeded×100."}},
  "data": [
    {"smiles": "C=C1/C(=C\\C=C2/CCC[C@]3(C)[C@@H]([C@H](C)CCCC(C)(C)O)CC[C@@H]23)C[C@@H](O)C[C@@H]1O", "note": "[1α,25-dihydroxycholecalciferol, (5Z,7E)-9,10-secocholesta-5,7,10(19)-triene-1α,3β,25-triol, reference compound]", "values": [
      {"measurement": "inhibition at 0.01 µM", "setting": "[1]; Homo sapiens, HaCaT, 240 h, 10^−8 M, read-out: inhibition of colony formation", "result": 64, "unit": "%"}
    ]},
    {"smiles": "C=C1CC[C@H](O)C/C1=C/C=C1\\CCC[C@@]2(C)[C@H]1CC[C@@H]2[C@@](C)(O)CCCC(C)C", "note": "[20(OH)D3, (5Z,7E)-9,10-secocholesta-5,7,10(19)-triene-3β,20-diol]", "values": [
      {"measurement": "increase in VDRE-driven luciferase activity", "setting": "[2]; 10 nM, scrambled siRNA", "result": "~3", "unit": "fold"},
      {"measurement": "inhibition of colony formation", "setting": "[1]; 10^−7 M", "result": 58, "unit": "%"},
      {"measurement": "inhibition of colony formation", "setting": "[1]; 10^−8 M", "result": 36, "unit": "%"},
      {"measurement": "cytokeratin 14 mRNA expression", "setting": "[3]; 1 h", "result": "45 % of the control"},
      {"measurement": "cytokeratin 14 mRNA expression", "setting": "[3]; 6 h", "result": "62 % of the control"},
      {"measurement": "G0/G1 of viable cells", "setting": "[4]", "result": 47, "unit": "%"},
      {"measurement": "G2/M of viable cells", "setting": "[4]", "result": 10},
      {"measurement": "S of viable cells", "setting": "[4]", "result": 43, "unit": "%"},
      {"measurement": "Viable Cells", "setting": "[4]", "result": 8},
      {"measurement": "subG1", "setting": "[4]; whole cell population", "result": 92}
    ]},
    {"smiles": "C=C1CC[C@H](O)C/C1=C/C=C1\\CCC[C@]2(C)[C@@H](C(C)(O)CC(O)CC(C)C)CC[C@@H]12", "note": "(stereo partly drawn) [20,23-dihydroxycholecalciferol, (5Z,7E)-9,10-secocholesta-5,7,10(19)-triene-3β,20,23-triol]", "values": [
      {"measurement": "VDRE-Luc activity", "setting": "[2]; HaCaT, 10 nM and 100 nM", "result": "Activation of VDRE"}
    ]},
    {"smiles": "C=C1CC[C@H](O)C/C1=C/C=C1\\CCC[C@]2(C)[C@@H](C(C)=O)CC[C@@H]12", "note": "[pD3, (5Z,7E)-3β-hydroxy-9,10-secopregna-5,7,10(19)-trien-20-one]", "values": [
      {"measurement": "monocytic differentiation (NBT staining)", "setting": "[5]", "result": "induce monocytic differention"},
      {"measurement": "colony formation on soft agar", "setting": "[6]", "result": "suppress colony formation on soft agar"}
    ]}
  ]
}
